The results in this text go back to US20230270772A1, “USE OF 5'-METHYLTHIOADENOSINE IN PREPARATION OF OBESITY-SUPPRESSING DRUGS OR HEALTH CARE PRODUCTS” (Zhejiang Chinese Medical University, priority 2022, published 2023).

Molecules are shown by their SMILES.

For test [1], the system named is high-fat diet-induced obesity in C57/BL mice. Briefly: Comparison of MTA and adenosine in suppressing high-fat diet-induced obesity. It counts as in vivo. As to conditions: 8-week-old C57BL/6 mice, tube-feeding 100 mg/kg/day, FIG. 2A-2D. The text has this: Experimental animals: 8-week-old C57BL/6 mice; Diets and drugs: low-fat diet (10% kcal as fat, product #D12450J, Research Diets), high-fat diet (60% kcal as fat, product #D12492, Research Diets), MTA, and adenosine.

Test [2] deals with high-fat diet-induced obesity in C57BL/6 mice. Briefly: Suppression of high-fat diet-induced obesity, gavage for 9 weeks. It counts as in vivo. The conditions noted are these: 100 mg/kg/day by gavage. The protocol:
Eight-week-old C57BL/6 mice were divided into three groups (a control group, a model group, and a drug-treated group) (FIG. 4A). The mice of control group were fed with a low-fat diet, and the mice of model group were fed with a high-fat diet ad libitum. The mice of drug-treated group were fed with high-fat diet+5′-methylthioadenosine (100 mg/kg/day) by gavage for 9 weeks, during which the body weight of the mice was recorded, and OGTT and ITT thereof were conducted.

The test system is the same in test [3]. Briefly: Suppression of high-fat diet-induced obesity, gavage for 11 weeks. It counts as in vivo. The conditions noted are these: 50 and 100 mg/kg/day by gavage. Here is the method: Eight-week-old C57BL/6 mice were divided into three groups (a control group, a model group, and a drug-treated group). The mice of control group were fed with a low-fat diet, the mice of model group were fed with a high-fat diet, and the mice of drug-treated group were fed with high-fat diet+5′-methylthioadenosine (50 and 100 mg/kg/day) by gavage for 11 weeks, during which the body weight of the mice was recorded, and OGTT and ITT thereof were conducted.

The subject of test [4] is HepG2 hepatoma cells. Briefly: Suppression of uric acid-induced lipogenesis in HepG2 hepatoma cells (oil red staining). The class given is cell-based. As to conditions: uric acid 120 μg/mL + 0.05, 0.1, 0.5, 1.0 and 5.0 μg/mL for 24 h, FIG. 3. The protocol: HepG2 hepatoma cells were induced to synthesize fat by uric acid (120 μg/mL). After 24 h, the cells were divided into two groups for testing. The cells of model group continued to be induced with uric acid (120 μg/mL) for 24 h.

Regarding `Nc1ncnc2c1ncn2[C@@H]1O[C@H](CO)[C@@H](O)[C@H]1O` [adenosine], in test [1], the “obesity-suppressing effect (body weight, liver weight, subcutaneous and visceral fat weight)” value is “shown to inhibit the body weight and liver weight gains and fat accumulation in mice”.

Regarding `CSC[C@H]1O[C@@H](n2cnc3c(N)ncnc32)[C@H](O)[C@@H]1O` [5′-methylthioadenosine, 5′-Methylthioadenosine], the “high-fat diet-induced obesity (body weight)” value was “significantly suppressing high-fat diet-induced obesity” in test [2] (FIG. 4B) and “significantly suppressing high-fat diet-induced obesity, with a concentration gradient effect” in test [3] (FIG. 5A, 5B). In addition, the “oral glucose tolerance and insulin tolerance (OGTT, ITT)” value was “improving oral glucose tolerance and insulin tolerance in mice” in test [2] (FIG. 4H, 4I); “improving oral glucose tolerance and insulin tolerance in mice” in test [3] (FIG. 5G-5J). For the same compound, the “liver lipogenesis and gains of subcutaneous and visceral fats” value in test [2] (after sacrifice, FIG. 4C-4G) was “suppressing the liver lipogenesis and the gains of subcutaneous fats and visceral fats”. In test [3] (after sacrifice, FIG. 5C-5F), the “liver lipogenesis and gains of subcutaneous and visceral fats (perirenal, testicular)” value is “suppressing the liver lipogenesis and the gains of subcutaneous fats and visceral fats, with a concentration gradient effect”. Besides, the “uric acid-induced lipogenesis (amount of synthetic fat, oil red staining)” value in test [4] is on record as “significantly inhibiting uric acid-induced lipogenesis in HepG2 cells with a concentration gradient effect”. Moreover, in test [1], the “obesity-suppressing effect (body weight, liver weight, subcutaneous and visceral fat weight)” value was “significantly better than that of adenosine”.
